In patent publication US20190289849A1, “Novel Plant Growth Regulators and Methods of Using Same” (Duke University, priority 2016, published 2019):
Entries after “also recorded” stand apart in the source; their conditions may differ.

Columns and labels:
[1] = system: Arabidopsis thaliana; assay: Lateral root capacity (emerged lateral roots after removal of the primary root apical meristem); type: in vivo; conditions: for rescue of D15 inhibition of lateral root branching: D15-treated plants, apocarotenoid concentration varied for maximum rescue; for lateral root capacity / branching in combination with D15 (screen): 30 μM D15 plus apocarotenoid, normalized to D15 treatment
[2] = system: Arabidopsis; assay: High concentration (10 mM) apocarotenoid effects on plant growth; type: in vivo; conditions: for herbicidal effect when sprayed on plants / method of lethality (phenotype): 10 mM per FIG. 11; for lateral root growth / root length / shoot mass: 10 mM
Protocol: FIG. 10 illustrates the effect of high doses of β-cyclocitral and DHAD on root growth. A) The effect of adding small volumes of 10 mM apocarotenoids daily to either the shoots, root tip, or the middle of the root. B) A confocal image of a healthy root stained with propidium iodide, which marks dead cells. C) A root treated with 10 mM β-cyclocitral applied to the tip of the root.
FIG. 11 illustrates the effect of 10 mM apocarotenoids on plant development. A) The percent change in lateral root capacity, normalized to control plants. Abbreviations: dihydro-β-ionone (DHβI), dimethyl-β-cyclocitral (DMβC). β-cyclocitral (β-cyc), pseudoionone (PI), and dihydroactinidiolide (DHAD). B) Confocal image of a control root stained with propidium iodide. C) Image of a root treated with safranal. D) Images of leaves form a control plant. E) Images of leaves from a plant treated with pseudoionone.
At high concentrations (10 mM) of β-cyclocitral or DHAD, root length, shoot mass, and lateral root growth were inhibited. […] In one embodiment, safranal may be detrimental to Arabidopsis at concentrations as low as 500 μM.

[3] = system: lateral root primordia; assay: Lateral root primordia counts with WOX5 (stage 1) and EN7 (stage 3) markers, and primordia emergence; type: in vivo, Arabidopsis thaliana
Protocol: All seeds were in the Columbia-0 background. Seeds were sterilized with chlorine gas, incubated in 4° C. water for 2 days, and plated on 1% (wt/vol) Murashige and Skoog (1% MS) media with 1% agar. They were exposed to 100-130 μmol/(m^2s^1) illumination and grown vertically under long-day conditions at 22° C. Plants were analyzed at 7 days after stratification (das), unless noted otherwise. D15-treated media was made using D15 (N-(4-fluorobenzyl)-methoxycinnamic hydroxamic acid) synthesized by LeadGen Labs, LLC solubilized in DMSO. 100 mM D15 stock solution was diluted directly into 1% MS media for final concentrations ranging from 1 μM to 100 μM. For initial experiments testing the ability of apocarotenoids to rescue D15, plants were seeded on 1% MS media containing 30 μM D15 and 100 nM apocarotenoid (diluted from 1 mM stock solutions dissolved in DMSO). For subsequent experiments characterizing the effect of β-cyclocitral, plants were exposed to volatile analytical grade β-cyclocitral (≥97%, Sigma Aldrich) using 100×15 mm partitioned petri dishes. One side of the partition was filled with 25 μM β-cyclocitral diluted in 1% MS media. Seeds were plated on the other side of the partition, on 1% MS media. […] For norflurazone treatments, norflurazone (Chem Service) dissolved in DMSO was diluted to a final concentration of 500 nM norflurazone in 1% MS media. For all experiments, including those performed on tomatoes and rice, plants were never exposed to DMSO concentrations that exceeded 0.1%.
(§1) To measure lateral root capacity, the primary root apical meristem of each seedling was sterilely excised at 7 days. The plants were given 3 days to grow out lateral roots, and then each emerged lateral root was counted using a dissection microscope, as described previously (Van Norman et al., Proceedings of the National Academy of Sciences of the United States of America, 2014. 111(13): p. E1300-E1309). Luciferase activity was measured as previously described, using exposure times of 7 min (Moreno-Risueno, M. A., et al., Science, 2010. 329(5997): p. 1306-1311). WOX5^+ and EN7^+ primordia were counted using a stereo zoom microscope (Zeiss). Lateral and primary root lengths for Arabidopsis thaliana and tomato were measured using ImageJ (National Institutes of Health) software. 3D images of rice root architecture were captured using a 360° revolving platform and these images were analyzed using GiA Roots (www.giaroots.org), as described previously by Topp (2013). Primary root lengths were determined by dissecting the root and measuring the length with a ruler. Shoot mass was measured after removing the shoots and drying them for 10 days at 60° C.
First, the effect of D15 on lateral root branching was characterized and is shown FIG. 1. […] NCEDs are a sub-group of CCDs that cleave carotenoids at the 11, 12′ positions. […] By titrating D15 to its IC50 concentration (30 μM), the lateral root capacity was measured with enhanced sensitivity (FIGS. 1A-B). To determine how D15 inhibits lateral root branching, its effect on the lateral root clock, which establishes the sites of lateral root initiation, was examined. To test this, a synthetic promoter driving luciferase (pDR5:LUC) was utilized. In control roots, luminescence intensity oscillates every six hours (FIG. 1C). Only the root cells that experience the peak oscillation intensity become competent to form lateral root pre-branch sites. […] To further characterize the effect of D15 on lateral root initiation, its effect on two stages of primordia development was determined, as marked by WOX5 (pWOX5:GFP) and EN7 (pEN7:GAL4; UAS:H2A-GFP). These lines allow visualization of the QC at stage 1 of primordia development and the endodermis at stage 3 of development, respectively. […] This further supports the lateral root clock evidence that D15 inhibits the initiation of lateral root primordia.

[4] = system: Heinz tomatoes; assay: Tomato primary and lateral root growth; type: in vivo
Protocol: as §1, with “Heinz tomatoes were used for all tomato experiments. Seeds were sterilized using 40% liquid bleach for 30 min, then plated on 1% MS media in 120×120×17 mm square petri dishes. Seeds were kept in the dark at room temperature for 3 days, and then exposed to 100-130 μmol/(m^2s^1) illumination and grown vertically under long-day conditions at 22° C. For treating tomatoes, β-cyclocitral, norflurazone, and D15 were added directly to the media, at the concentrations described in the figures. Norflurazone was diluted to a final concentration of 1 μM in media. Tomato phenotypes were analyzed at 6 das. To measure” for “To measure”, “111(13): p. […]-[…]). Luciferase activity” for “111(13): p. E1300-E1309). Luciferase activity”

[5] = system: Arabidopsis thaliana; assay: Primary and lateral root growth on exposure to volatile β-cyclocitral; type: in vivo
[6] = system: Azucena (tropical japonica) rice; assay: Rice root system architecture and shoot weight; type: in vivo
Protocol: as §1, with “Azucena (tropical japonica) seeds were dehulled and germinated in the dark for 3 days at 30° C. Germinated seeds were transferred to Yoshida's nutrient solution, solidified with 0.25% gelzan (Caisson Laboratories, Inc.), in 2 L glass cylinders, as described previously (Topp, C. N., et al., Proceedings of the National Academy of Sciences of the United States of America, 2013. 110(18): p. […]-[…].). Rice roots were imaged at 12 das. To measure” for “To measure”, “111(13): p. […]-[…]). Luciferase activity” for “111(13): p. E1300-E1309). Luciferase activity”

[7] = system: lateral root clock; assay: Lateral root clock luminescence (pDR5:LUC) and pre-branch sites; type: in vivo, Arabidopsis thaliana
Protocol: as §1
First, the effect of D15 on lateral root branching was characterized and is shown FIG. 1. […] By titrating D15 to its IC50 concentration (30 μM), the lateral root capacity was measured with enhanced sensitivity (FIGS. 1A-B). […]

[8] = system: LeCCD1; conditions: in vitro; cited from earlier work
[9] = IC50 concentration of D15 (30 μM)

Question: Which results are given for `CC1=C(C=O)C(C)CCC1` (stereo not shown)?
Answer: rescue of D15 inhibition of lateral root branching [1]: did not have the capacity to rescue; herbicidal effect when sprayed on plants [2]: herbicidal effects

Question: Which “lateral root capacity / branching in combination with D15 (screen)” value (“lateral root capacity / branching” below) [1] does the source give for `CC1=CC(=O)CC(C)(C)[C@@]1(O)/C=C/C(C)=C\C(=O)O` [ABA, abscisic acid, reference compound] here?
Answer: further decreased

Question: For `CC1(C)CCC[C@@]2(C)OC(=O)C=C12` [DHAD, dihydroactinidiolide], which “lateral root capacity / branching” value [1] is on record?
Answer: increase lateral root branching

Question: And the “rescue of D15 inhibition of lateral root branching” value [1]?
Answer: only partially rescue

Question: And the lateral root growth [2]?
Answer: inhibited

Question: What about the root length [2] of the same molecule?
Answer: inhibited

Question: And the shoot mass [2]?
Answer: inhibited

Question: For `CC1=C[C@H](O/C=C2/C(=O)O[C@@H]3c4ccccc4C[C@H]23)OC1=O` [GR24, reference compound], which “lateral root capacity / branching” value [1] is on record?
Answer: further decreased

Question: For `CNc1cnn(-c2cccc(C(F)(F)F)c2)c(=O)c1Cl` [norflurazone, 4-chloro-5-(methylamino)-2-(α,α,α-trifluoro-m-tolyl)-3(2H)-pyridazinone], which “effect on lateral root development (primordia initiation, maintenance, development, emergence)” value ([3]; 500 nM norflurazone in media) is on record?
Answer: blocks normal lateral root development; also recorded: blocked primordia initiation as well as maintenance, post-initiation development, and emergence

Question: What about the “primary and lateral root growth” value ([4]; tomato, 1 μM norflurazone in media) of the same molecule?
Answer: decreased

Question: For `CC(=O)/C=C/C=C(\C)CCC=C(C)C` [pseudoionone], which “herbicidal effect when sprayed on plants” value [2] is on record?
Answer: herbicidal effects

Question: What about the “method of lethality (phenotype)” value [2] of the same molecule?
Answer: caused plants to become chlorotic

Question: What does the source list for `CC1=C(C=O)C(C)(C)CC=C1` [safranal]?
Answer: herbicidal effect when sprayed on plants [2]: herbicidal effects; method of lethality (phenotype) [2]: changed root cell morphology

Question: With `CC1=C(C=O)C(C)(C)CCC1` [β-cyclocitral] as the molecule, how does the “lateral root capacity / branching” value [1] read?
Answer: increase lateral root branching

Question: What about the “rescue of D15 inhibition of lateral root branching” value [1] of the same molecule?
Answer: fully rescue

Question: What about the “WOX5+ primordia initiation” value ([3]; in D15-treated plants) of the same molecule?
Answer: did not rescue

Question: And the “WOX5+ sites” value ([3]; in the absence of D15)?
Answer: did not increase

Question: And the “number of EN7+ primordia” value ([3]; in the absence of D15, p=0.12)?
Answer: did increase

Question: What about the “number of EN7+ primordia” value ([3]; in the presence of D15, p=0.02) of the same molecule?
Answer: did increase

Question: What about the “primary and lateral root emergence” value ([5]; exogenous volatile application, in the presence and absence of D15) of the same molecule?
Answer: increased

Question: What about the lateral root length ([5]; with or without co-treatment of D15) of the same molecule?
Answer: increases

Question: What about the “rescue of D15 primary root inhibition” value ([4]; tomato, D15 plus exogenous β-cyclocitral) of the same molecule?
Answer: could not be rescued

Question: What about the lateral root length ([4]; tomato, dose-dependent) of the same molecule?
Answer: significant increase

Question: And the “rescue of primary root growth in norflurazone-treated plants” value ([4]; tomato, norflurazone plus β-cyclocitral)?
Answer: fully rescued

Question: And the primary root length ([4]; tomato, uninhibited plants)?
Answer: significantly increased

Question: And the crown root growth ([6]; Azucena rice)?
Answer: dramatically increasing

Question: What about the primary root growth ([6]; Azucena rice) of the same molecule?
Answer: dramatically increasing

Question: What about the “root system depth and compactness vs control plants” value ([6]; Azucena rice, 10 μM β-cyclocitral per FIG. 8) of the same molecule?
Answer: deeper and more compact

Question: What about the lateral root length ([6]; rice) of the same molecule?
Answer: decreased

Question: And the shoot growth ([6]; rice)?
Answer: remained unchanged

Question: What about the dry shoot weight ([6]; rice plants) of the same molecule?
Answer: does not significantly change

Question: And the lateral root growth [2]?
Answer: inhibited

Question: What about the root length [2] of the same molecule?
Answer: inhibited

Question: What about the shoot mass [2] of the same molecule?
Answer: inhibited

Question: What about the root growth ([2]; 10 mM applied only to the root tip) of the same molecule?
Answer: sufficient to reduce root growth

Question: With `CC(=O)/C=C/C1=C(C)CCCC1(C)C` [β-ionone] as the molecule, how does the “rescue of D15 inhibition of lateral root branching” value [1] read?
Answer: did not have the capacity to rescue

Question: Which “lateral root capacity, maximum effect” value ([1]; 100 μM D15) does the source give for “N-(4-fluorobenzyl)-methoxycinnamic hydroxamic acid [D15]” here?
Answer: completely inhibited

Question: And the IC50 ([1]; D15 in 1% MS media, read-out: IC50 concentration for lateral root capacity)?
Answer: 30 µM

Question: What about the “peak oscillation intensity of pDR5:LUC luminescence vs control roots” value ([7]; D15-treated roots (100 μM per FIG. 1)) of the same molecule?
Answer: significantly lower

Question: And the “number of pre-branch sites” value ([7]; D15-treated roots, p=0.009)?
Answer: significantly decreased

Question: And the “decrease in number of stage 1 (WOX5) lateral root primordia” value [3, 9]?
Answer: approximately 50%

Question: And the “decrease in number of stage 3 (EN7) lateral root primordia” value [3, 9]?
Answer: approximately 50%

Question: What about the “emergence of lateral root primordia compared to control roots” value ([3]; in vivo) of the same molecule?
Answer: did not inhibit

Question: What about the lateral root length ([4]; Heinz tomatoes, D15 treatment) of the same molecule?
Answer: does not decrease

Question: And the primary root length ([4]; tomato, D15 treatment)?
Answer: decreased

Question: And the lateral root branching ([4]; tomato, p=0.99)?
Answer: did not have a negative effect

Question: What about the “enzyme preference, LeCCD1 compared to LeNCED1” value [8] of the same molecule?
Answer: preferentially targets LeCCD1
